Experimental findings from patent publication US4602026A, “Ophthalmic topical agent for remedy of diseases of iris and ciliary body” (Senju Pharmaceutical Co., Ltd., priority 1984, dated 1986) are described below.

By LD50 is commonly meant the dose at which mortality reaches 50%. High values mean lower toxicity, low ones greater toxicity.

One data set concerns Mouse. The experiment in a line: Acute toxicity test, mouse. The data set is classed as in vivo. To be noted: mice.
The nature of data set [1]: Acute toxicity test, mouse. To be noted: mouse, in vivo. Format: in vivo.
The subject of the next data set is Rat. The experiment in a line: in vivo. On the procedure:
(§1) Acute toxicity test was conducted on rats aged four weeks to which 5-(3-ethoxy-4-pentyloxyphenyl)-2,4-thiazolidinedione was administered.

The next data set is described as follows: in vivo. To be noted: rat, in vivo. On the procedure:
as §1

In the next data set the test system is mice and rats. The experiment in a line: Acute toxicity test, symptoms and findings common to mice and rats. The data set is classed as in vivo. To be noted: for life period in the death cases: both animals. On the procedure: as §1
The following symptoms in common with the mice and rats were observed.

[2] abbreviates: ip, intraperitoneal injection, female.
[3] abbreviates: ip, intraperitoneal injection, male.
Where [4] appears, read: po, oral administration, female.
Setting [5] is: sc, subcutaneous injection, female.
The mark [6] stands for this setting: sc, subcutaneous injection, male.

`CCCCCOc1ccc(C2SC(=O)NC2=O)cc1OCC` (centres unmarked) [5-(3-ethoxy-4-pentyloxyphenyl)-2,4-thiazolidinedione]: the “General symptoms, additional in mice” value in the data set on Mouse (intraperitoneal injection) was “projection of the eyeball, a secretion in the margin of palpebra, fall of the body surface temperature and a slight degree of tremor in a few cases were seen”; in the data set on Mouse (oral administration) it was “lacrimation, a secretion in the margin of palpebra and fall of the body surface temperature were additionally observed”; in the data set with Mouse (subcutaneous injection, next day after administration), “projection of the eyeball, a secretion in the margin of palpebra and fall of the body surface temperature were additionally seen”. In addition, the LD50 in data set [1] (setting [2]) was 500 mg/kg; in data set [1] (setting [3]) it was 560 mg/kg; in data set [1] (setting [4]), 2150 mg/kg; in data set [1] (po, oral administration, male), 2320 mg/kg; in data set [1] (setting [5]), 2270 mg/kg; in data set [1] (setting [6]), 1720 mg/kg. Also, the LD50 came out at 520 mg/kg in the data set “in vivo” (setting [2]); 490 mg/kg in the data set “in vivo” (setting [3]); 4330 mg/kg in “in vivo” (setting [4]); 5300 mg/kg in “in vivo” (po, oral administration, male); 3300 mg/kg in the data set “in vivo” (setting [5]); 3210 mg/kg in “in vivo” (setting [6]). Further, the Observation on dissection result in the data set on Rat (rat, in vivo, po) is “atrophy of the thymus gland was further seen”. The “Observation on dissection, survival cases” value in the data set with Rat (rats, subcutaneous administration, injection area) was “formed with a cyst of hen's egg size in the injection area, and the cyst was found to contain an extremely small amount of unabsorbed medicament and a small amount of extravasation liquid”. In addition, the General symptoms in the data set with mice and rats (in vivo, sc) is 3 or 5 hours after the administration, a slight suppression of spontaneous motility was found, and then, lowering in tonus of the abdominal muscle, walking disorder, lacrimation and respiratory depression were observed. Moreover, the “life period in the death cases” value is 2 to 24 h in the data set on mice and rats (intraperitoneal administration); 2 to 24 h in the data set on mice and rats (oral administration, major cases); 48 to 96 h with mice and rats (oral administration, minor cases); “from the night of the administration day to three days after the administration” in the data set with mice and rats (subcutaneous administration). Besides, the “Observation on dissection, death cases” value with mice and rats (mice and rats) is “congestion of the lung was observed in both mice and rats”.
